Data on five molecules can be found in patent US20070148660A1, “Treatment of maladaptive substance use with H-ras antagonists” (The Regents of the University of California, priority 2005, published 2007).

One test deals with NMDAR. Nature of the test: NMDAR-mediated EPSCs, whole-cell voltage clamp, hippocampal CA1. The class given is cell-based, mouse. Conditions: for effect on the ethanol-induced inhibition of NMDAR-mediated EPSCs: inhibitor applied before ethanol, hippocampal slices. The protocol:
Electrophysiological recordings were performed in C57BL/6J mice ranging from P21 to P26. Briefly, mice were anesthetized with halothane and decapitated as per University of California, San Francisco animal care guidelines. Horizontal sections of the hippocampus ([…]) were prepared with a vibratome (Leica, Nussloch, Germany). Slices were placed in a holding chamber and allowed to recover for at least 1 hr before being placed in the recording chamber and superfused with aCSF saturated with 95% O2/5% CO2 and containing (in mM): 119 NaCl, 1.6 KCl, 1.0 NaH2PO4, 1.3 MgCl2 (for EPSCs) or 0.01 MgCl2 (for field excitatory postsynaptic potentials (fEPSPs)), 2.5 CaCl2, 26.2 NaHCO3 and 11 glucose. Picrotoxin (100 μM) was added to block gamma-aminobutyric acid-A (GABAA) receptor-mediated inhibitory synaptic transmission, and CNQX (for EPSCs) or NBQX (for fEPSPs) (10 μM) was added to block α-amino-3-hydroxy-5-methyl-4-isoxalepropionate (AMPA)/Kainate receptors. Cells were visualized using infrared differential interference contrast video microscopy.
Whole-cell voltage clamp-recordings were made using an Axopatch ID or a MultiClamp 700A amplifier (Axon Instruments, Union City, Calif.). Electrodes (3.5-5.0 MΩ) contained (in mM): 120 Cesium methansulfonate, 20 HEPES, 0.4 EGTA, 2.8 NaCl, 5 TEA-Cl, 2.5 MgATP, and 0.25 NaGTP (pH 7.2-7.3), buffer at 270-285 mOsm. Series resistance (10-30 MΩ) and input resistance were monitored on-line with a 4 mV depolarizing step (50 ms) given just after every afferent stimulus. Recordings from the CA1 region of the hippocampus were obtained with a bipolar stimulating electrode that was placed 100-300 μm rostral to the recording electrode and was used to stimulate excitatory afferents at 0.1 Hz. Neurons were voltage-clamped at +40 mV to evoke NMDAR-mediated EPSCs. At this potential, NMDARs have a maximal open probability and the Mg^2+ block is removed. EPSCs were filtered at 2 kHz, digitized at 5-10 kHz and collected on-line using Igor Pro software (Wavemetrics, Lake Oswego, Oreg.) or pClamp 9 (Axon Instruments, Union City, Calif.). NMDAR example traces were constructed by averaging 20 EPSCs (200 sec) elicited at +40 mV during baseline, ethanol application, drug application or drug application with ethanol. To calculate the decay time (τ), Igor Pro software was used to fit exponential decay curves to averaged NMDAR-mediated EPSCs using the formula: y=A1exp(−invTau1*x)+A2exp(−invTau2X).

Test [1] deals with Raf-1-Ras binding domain GST agarose (UniProt P04049). Nature of the test: pull-down of hippocampal homogenates with Raf-1-Ras binding domain GST-agarose, Western blot with pan anti-Ras; ratio of Ras-GTP over total Ras, normalized to the control. For orientation: In western blotting, separated proteins are transferred to a membrane and probed.
For the next test, the system named is Ras. Nature of the test: Ras activity assay (Raf-1-Ras binding domain GST-agarose), hippocampal slices. The class given is cell-based, mouse. How it is done: The treated hippocampal homogenates (250 μg) were incubated with […] of Raf-1-Ras binding domain GST-agarose for 45 min at 4° C. while rotating, as per manufacturer's instructions. […] Results were quantified by NIH Image 1.61.

Consider `C[C@H](NC(c1cccc2[nH]c(=O)c(=O)[nH]c12)P(=O)(O)O)c1ccc(Br)cc1` (some centres unmarked) [NVP-AAM077, reference compound], for which the “decrease of NMDAR EPSCs” value with NMDAR (NVP-AAM077 0.4 μM, n=6) was found to be 55±4%. The “NMDAR-mediated EPSCs in slices first treated with ethanol and ifenprodil” value in the test with NMDAR (NVP-AAM077 application, data not shown) is on record as “no effect”. For the same molecule, in the test on NMDAR (in the presence of NVP-AM077 (0.4 μM), n=6, baseline 43.0±2.1 ms), the weighted decay time came to 68.7 ± 9.4 ms. Also, the “effect on the ethanol-induced inhibition of NMDAR-mediated EPSCs” value with NMDAR is “occluded”.

“GTP-bound active Ras, endogenous in mouse hippocampal slices (from UniProt Q61411 1-186)”: the fold increase of Ras-GTP pulled down, ethanol-treated over control slices in test [1] amounted to 2 fold.

For the molecule `CC(C(O)c1ccc(O)cc1)N1CCC(Cc2ccccc2)CC1` (centres unmarked) [ifenprodil, reference compound], the “decrease of NMDAR EPSCs” value in the test on NMDAR (ifenprodil 3 μM, n=5) is recorded as 37+5%. Further, in the test with NMDAR (ifenprodil application, data not shown), the “NMDAR-mediated EPSCs in slices treated with both ethanol and NVP-AAM077” value is “further inhibition”. Further, the weighted decay time in the test with NMDAR (in the presence of ifenprodil (3 μM), n=7, baseline 41.2±3.4 ms) was found to be 34.7 ± 4.5 ms. The “effect on the ethanol-induced inhibition of NMDAR-mediated EPSCs” value in the test with NMDAR is given as “did not”.

In the case of `[Cl-].[K+]` [KCl], in the test with Ras (50 mM KCl, 5 min, hippocampal slices), the Ras activity result was “increases Ras activity”.

On to “Tat-peptide: Tat-peptide (YGRKKRRQRRR: SEQ ID NO:2) synthesized by Syn Pep, used as a control”, for which, in the test on Ras (pre-incubation 2 hrs (Tat-H-Ras DN printed 2 mM, Tat-peptide 2 μM), then 100 mM ethanol 15 min), the “effect on ethanol-mediated increase in endogenous Ras activity” value is “did not”.
